Our source for the inhibition in vivo and inhibition values is ChEMBL document CHEMBL3227973, “Synthesis and platelet aggregation inhibitory activity of 6-isobutyl-alpha-methyl-3-pyridineacetic acid” (1979).

For test [1], the system named is Rattus norvegicus. The test is described as follows: Ex vivo antiplatelet activity in Sprague-Dawley rat assessed as inhibition of collagen-induced platelet aggregation at 40 mg/kg, po after 1 hr. Format: functional.
Test [2] has as its system Rattus norvegicus. The test is described as follows: Ex vivo antiplatelet activity in Sprague-Dawley rat assessed as inhibition of collagen-induced platelet aggregation at 10 mg/kg, po after 1 hr. Format: functional.
Test [3] concerns Rattus norvegicus. Kind of test: Ex vivo antiplatelet activity in Sprague-Dawley rat assessed as inhibition of collagen-induced platelet aggregation at 50 mg/kg, po after 1 hr. Format: functional.
A further test is filed under the species Mus musculus. Kind of test: Ex vivo antiplatelet activity in mouse assessed as inhibition of collagen-induced platelet aggregation at equivalent dose of ibuprofen after 1 hr.

Activity calls are given as the source filed them. The rule behind the calls is not given here.

For orientation: inhibition in vivo means the drop in the measured response relative to a control, in per cent. For the compound `CC(C)Cc1ccc(C(C)C(=O)O)cc1` (stereo not given) [IBUPROFEN], the inhibition in vivo at 40 mg/kg with Rattus norvegicus [1] worked out at 88%. Besides, the inhibition in vivo at 10 mg/kg in the test on Rattus norvegicus [2] came to 10%.

For `CC(C)Cc1ccc(C(C)C(=O)O)cn1` (stereo not given), in the test with Rattus norvegicus [3], the inhibition in vivo at 50 mg/kg was found to be 65%. In addition, the inhibition in vivo at 10 mg/kg in the test with Rattus norvegicus [2] stood at 33%.

For `CC(C)Cc1ccc(C(C)C(=O)O)c(Cl)n1` (stereo not given), the inhibition result in the test listed under Mus musculus was “inactive”.
